pKd: −log10 of the molar value.
Key:
[1] = Potentiometric sensorgram of an oligonucleotide analyte; conditions: 10^−5 M injection
Text: Coating materials such as gelatin are easily doped by proteins [see De Wael, K.; De Belder, S.; Van Vlierberghe, S.; Van Steenberge, G.; Dubruel, P. Talanta 82 (2010) 1980-1985] antibodies, bioparticles (viruses, bacteria, . . . ), DNA, and aptamers. Large biomolecules can be used as analyte (prey ligand) (second molecular species). From experience with oligonucleotides [Nagels, L. J.; Everaert, J.; Bohets, H.; Del Favero, J.; Goossens, D.; Robbens, J.; Pietraszkiewicz, M.; Pietraszkiewicz, O., Comb. Chem. High Throughput Screening 10 (2007) 555-559] it is known that these multiply charged molecules give very good potentiometric responses. For example, the 22-mer 5′-[…]-3′ yields a slope (S, equations 2 and 3) value of 38 mV per decade, which is much higher than that calculated by the Nernst equation (equation 2). This is due to the fact that equation 2 was derived for point charges, while an oligonucleotide is a multiply charged rodlike molecule. It is detected three times more sensitively (on a molar basis) than a small, well-responding anionic molecule such as maleic acid. […] This means that the described method can also be used to measure DNA/DNA interactions. Potentiometry also allows working with miniaturized electrode arrays (eventually with ion-sensitive field-effect transistor (ISFET) readout), which means that high-throughput measurements can be considered.

[2] = test system: DA-specific aptamer (58 mer); test: Potentiometric FIA sensorgram, gelatin B sensor with covalently linked DA-specific aptamer; type: binding; conditions: for Rmax response in mV: 10^−5M injection, coating Gelatin B + DA-specific aptamer; for change in sensitivity (Rmax) when aptamer is coupled to gelatin B: with versus without aptamer
Text: (§1) [formula] Starting from the “association” part of the sensorgram, one can now plot dR/dt versus R. For a pseudo-first-order kinetics, this will yield a straight line with slope equal to slope=−(koncanalyte+koff) (12) Plotting this slope versus canalyte then yields a graph from which kon and koff can be calculated.
(§2) From kon and koff, Kassoc=kon/koff is obtained, from which Kdiss (=1/Kassoc) and the Gibbs free energy of interaction can be calculated (ΔG^0=−RT ln Kass). Kdiss is most frequently used term to express intermolecular interactions. This type of analysis was done for different electrode/analyte combinations. Examples were chosen so as to include examples where the immobilized component (in the coating layer of the sensor) includes large biomolecules (DNA).
(§3) The flow injection analysis (FIA) recordings were performed using an LC-10ADvp pump (Shimadzu Liquid Chromatography) and a Rheodyne 7125 six-port external sample injector (VICI, Houston, Tex.). A 1.00 mL sample loop was used to generate square concentration pulses for sensorgram recording in FIA conditions. […] The flow rate was 1.00 mL min^−1. Poiseuille peak broadening effects were kept to a minimum using short injector-detector connections (150 mm). To avoid such effects at the end of the square concentration pulse, the injector was switched from inject to load after 40 s (well before the sample loop volume was totally emptied).
The well-known ethyl-dimethyl-aminopropylcarbodiimide and n-hydroxy-succinimide (EDC-NHS) coupling procedure was used (with minor modifications) to bind the aminated aptamer covalently to the hydrogel, which contains carboxyl groups. After adding 20 μL of the coupling agents (15.32 mg of EDC and 2.32 mg of NHS dissolved in 100 μl of 10.0 mM MES buffer at pH 7.0) to the coated hydrogel for 2 h, 2×4 μL of the aptamer (10^−4M) was applied for 1 h. After evaporation for 2 h, at 4° C. the electrodes were kept in 10.0 mM MES running buffer, pH 7.0.
All chemicals were of analytical reagent grade. The FIA eluents were prepared daily by the dilution of a concentrated phosphoric acid solution or by dissolving HEPES, both obtained from Acros Organics (Filter Service NV, Eupen, Belgium). High-molecular-mass PVC was obtained from Janssen Chimica (Beerse, Belgium). The other membrane components were of the highest quality grade available from Fluka (Sigma-Aldrich, Bornem, Belgium). These include plasticizer TCPB, DOS, and the solvent tetrahydrofuran (THF). Type gelatin A (IEP (isoelectric point)=8.8, bloom strength 202), isolated from porcine skin by acid treatment, was obtained from Tessenderlo Chemie (Belgium). Promazine, lidocaine and tartaric acid were obtained from Sigma-Aldrich.
After checking the coupling of the aptamer to the biopolymer as described above, the electrodes were placed in a FIA potentiometric setup.
(§4) A R=10^mV/S−1 conversion was then plotted (see equation 4). […] Four electrodes were tested, each 3 injections.

Gelatin B = test: Potentiometric FIA response on gelatin B-coated electrode without aptamer (negative control sensor); type: binding; conditions: for Rmax response in mV: 10^−5M injection, coating Gelatin B
Description: as §4

DA-specific aptamer = conditions: read-out: Kdiss determined colorimetrically; Zheng (2011); cited from earlier work
[3] = test system: gelatin A coating (collagen material); test: Potentiometric FIA sensorgram, linearization method, gelatin A-coated sensor; type: binding, porcine
Text: as §1, §2
The flow injection analysis (FIA) recordings were performed using an LC-10ADvp pump (Shimadzu Liquid Chromatography) and a Rheodyne 7125 six-port external sample injector (VICI, Houston, Tex.). A 1.00 mL sample loop was used to generate square concentration pulses for sensorgram recording in FIA conditions. […] The flow rate was 1.00 mL min^−1. Poiseuille peak broadening effects were kept to a minimum using short injector-detector connections (150 mm). […]

[4] = Potentiometric FIA sensorgram, linearization method, rubber phase (PVC) coated sensor; type: binding; conditions: for koff: from plot of slope versus canalyte (on phase kinetics); for kon: from plot of slope versus canalyte, eluent 5.0 mM H3PO4 pH 2.4
Text: The model is based on the assumption that the rate determining phenomenon is the adsorption of analyte A (second molecular species) to the surface receptor sites Rsurface: A+Rsurface⇄ARsurface (5) Receptor sites are occupied by the analyte are designated as Roccupied. The rate of adsorption can be expressed as νon: […]
Differential equation 6 can be solved to yield equations 8 and 10. In these equations, Roccupied is replaced by R, the concentration-related response (10^mV/S−1), as both are linearly related (see above). Rmax is the value of R which is obtained at the plateau of the sensorgram: R(t)=Rmax(1−e^−k^obsd^t) (8) where kobsd=[…] (9) Equation 7 yields the well-known first-order exponential desorption formula: R(t)=Rmaxe^−k^off^t (10)
as §1, §2, §3
The eluent was 5.0 mM H3PO4 (pH 2.4) for the poly(vinyl chloride) (PVC)-based electrodes and 0.5 mM 4-(2-hydroxyethyl)-1-piperazine-ethanesulfonic acid (HEPES; pH 6.0) for the hydrogel electrodes (see the section “Potentiometric Electrode”). The column outlet was directed perpendicularly toward the sensitive membrane of the coated wire electrode in a “wall-jet” flow cell [see FIG. 1 and Bazylak, G.; Nagels, L. J. J. Pharm. Biomed. Anal. 32 (2003) 887-903]. The distance from the LC tubing outlet to the electrode was 0.100 mm unless otherwise stated.
The membrane potential was measured against an Orion 800500 Ross reference electrode (Ag/AgCl) using a high impedance (10^13Ω) home-made amplifier. The detection signals were recorded on a data station composed of a PC equipped with a 6013 NI DA converter and LabVIEW 7 (National Instruments, Austin, Tex.) based software. The overall RC time constant of the high-impedance amplifier plus data station was set to 0.200 s.
Electrodes with a composite substrate have the important property that the membrane coating and the composite are tightly mixed at the interface, and sensors constructed in this way show very good impedance characteristics (see Nagels, L; Bohets, H.; Jimidar, M. U.S. Pat. No. 7,857,962 B2). These characteristics were verified using impedance spectroscopy. The measurements were performed with an Autolab Metrohm PGSTAT 128N FRA instrument (frequency 1-100 kHz, amplitude 10 mV). A semicircle in the Nyquist plot was obtained if the electrode had good impedance characteristics. Discussions on such characteristics of potentiometric sensors are well described in Mattinen, U.; Rabiej, S.; Lewenstam, A.; Bobacka, J. Electrochim. Acta 56 (2011) 10683-10687; and Bobacka, J.; Ivaska, A.; Lewenstam, A. Chem. Rev. 108 (2008) 329-351. […]

[5] = cited from earlier work

Row | Compound | Rmax response in mV [2] [mV] | change in sensitivity (Rmax) when aptamer is coupled to gelatin B [2] | sensitivity of gelatin B based sensors (Gelatin B) | Rmax response in mV (Gelatin B) [mV] | Kassoc=kon/koff [4] [M⁻¹] | koff [4] [s⁻¹] | kon [4] [M⁻¹ s⁻¹] | other results
1 | 5′-AAAATATCATCTTTGGTGTTTC-3′ (chemistry not given here) [22-mer oligonucleotide used as analyte] |  |  |  |  |  |  |  | koff ([1]; off phase): 0.032 s⁻¹; kobsd ([1]; on phase): 0.055 s⁻¹
2 | CC(NCCc1ccc(O)cc1)C(O)c1ccc(O)cc1 (stereo not drawn) [Ritodrine, ritodrine] | 1.57 | no improvement in sensitivity | quite insensitive | 1.83 |  |  |  | 
3 | NCCc1ccc(O)c(O)c1 [Dopamine, dopamine] | 92.86 | very clear increase in Rmax |  | 9.46 |  |  |  | Kass [2]: 3.04e+07 M⁻¹; koff [2]: 0.0007 s⁻¹; kon [2]: 21200 M⁻¹ s⁻¹; signal (Rmax) with aptamer-containing electrodes versus electrodes without aptamer ([2]; four electrodes, each 3 injections): From five to ten times higher signals; pKd ([2]; mean of four electrodes, read-out: mean value of Kdiss): 5.88; pKd (DA-specific aptamer): 6.15
4 | O=C(O)C(O)C(O)C(=O)O (stereo not drawn) [tartaric acid] |  |  |  |  |  |  |  | koff [3]: 0.0472 s⁻¹; kon ([3]; from plot of slope versus canalyte, 0.5 mM HEPES pH 6.0): 66700 M⁻¹ s⁻¹
5 | CCN(CC)CC(=O)Nc1c(C)cccc1C [Lidocaine, lidocaine] | 1.57 | no improvement in sensitivity | quite insensitive | 2.88 | 275000 | 0.0717 | 19700 | average value of koff ([4]; off phase, all curves at different concentrations): 0.0748 s⁻¹
6 | CN(C)CCCN1c2ccccc2Sc2ccccc21 [Promazine] | 2.44 | no improvement in sensitivity | quite insensitive | 3.66 | 2.74e+06 | 0.0365 | 100000 | log P [5]: 4.36
